Measured values taken from the supplement of paper PMC10307832.

Assays:
Assay in all cases: relative viability (nuclei count vs DMSO), 5 days (fraction); higher = more cells survive
H3255 = tested on: H3255
Summary of the method: (§1)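 Lung cancer cell lines in 1536-well plates got either a single drug or a fixed anchor-drug dose together with five library-drug doses (not always all listed) in √10 steps, by pin tool, on the day after seeding. Nuclei were counted after 5 days, and relative viability is the treated-to-vehicle ratio of nuclei counts. Values are medians of duplicate plates.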

NCI-H1793 = tested on: NCI-H1793
Summary of the method: as §1

NCI-H441 = tested on: NCI-H441
Summary of the method: as §1

201T = tested on: 201T
Summary of the method: as §1

NCI-H1734 = tested on: NCI-H1734
Summary of the method: as §1

NCI-H1563 = tested on: NCI-H1563
Summary of the method: as §1

NCI-H2405 = tested on: NCI-H2405
Summary of the method: as §1

PC-14 = tested on: PC-14
Summary of the method: as §1

NCI-H322M = tested on: NCI-H322M
Summary of the method: as §1

LOU-NH91 = tested on: LOU-NH91
Summary of the method: as §1

EPLC-272H = tested on: EPLC-272H
Summary of the method: as §1

NCI-H647 = tested on: NCI-H647
Summary of the method: as §1

UMC-11 = tested on: UMC-11
Summary of the method: as §1

SW 900 = tested on: SW 900
Summary of the method: as §1

HCC-15 = tested on: HCC-15
Summary of the method: as §1

NCI-H2023 = tested on: NCI-H2023
Summary of the method: as §1

NCI-H520 = tested on: NCI-H520
Summary of the method: as §1

COR-L23 = tested on: COR-L23
Summary of the method: as §1

NCI-H3122 = tested on: NCI-H3122
Summary of the method: as §1

NCI-H2347 = tested on: NCI-H2347
Summary of the method: as §1

NCI-H1650 = tested on: NCI-H1650
Summary of the method: as §1

NCI-H2170 = tested on: NCI-H2170
Summary of the method: as §1

Structure (SMILES): O=c1cc(N2CCOCC2)oc2c(-c3cccc4c3sc3ccccc34)cccc12 + Cc1nc(Nc2ncc(C(=O)Nc3c(C)cccc3Cl)s2)cc(N2CCN(CCO)CC2)n1 [Dasatinib] (partner 0.075 µM)
- relative viability (H3255; first compound 0.01 µM): 0.348
- relative viability (H3255; first compound 0.03162 µM): 0.338
- relative viability (H3255; first compound 0.1 µM): 0.337
- relative viability (H3255; first compound 0.3162 µM): 0.379
- relative viability (H3255; first compound 1 µM): 0.345
- relative viability (NCI-H1793; first compound 0.01 µM): 0.372
- relative viability (NCI-H1793; first compound 0.1 µM): 0.394
- relative viability (NCI-H1793; first compound 0.3162 µM): 0.314
- relative viability (NCI-H1793; first compound 1 µM): 0.405
- relative viability (NCI-H441; first compound 0.01 µM): 0.623
- relative viability (NCI-H441; first compound 0.03162 µM): 0.676
- relative viability (NCI-H441; first compound 0.1 µM): 0.594
- relative viability (NCI-H441; first compound 0.3162 µM): 0.492
- relative viability (NCI-H441; first compound 1 µM): 0.574
- relative viability (201T; first compound 0.01 µM): 0.592
- relative viability (201T; first compound 0.03162 µM): 0.592
- relative viability (201T; first compound 0.1 µM): 0.596
- relative viability (201T; first compound 0.3162 µM): 0.505
- relative viability (201T; first compound 1 µM): 0.596
- relative viability (NCI-H1734; first compound 0.01 µM): 0.498
- relative viability (NCI-H1734; first compound 0.03162 µM): 0.517
- relative viability (NCI-H1734; first compound 0.1 µM): 0.49
- relative viability (NCI-H1734; first compound 0.3162 µM): 0.439
- relative viability (NCI-H1734; first compound 1 µM): 0.415
- relative viability (NCI-H1563; first compound 0.01 µM): 0.445
- relative viability (NCI-H1563; first compound 0.03162 µM): 0.451
- relative viability (NCI-H1563; first compound 0.1 µM): 0.445
- relative viability (NCI-H1563; first compound 0.3162 µM): 0.51
- relative viability (NCI-H1563; first compound 1 µM): 0.412
- relative viability (NCI-H2405; first compound 0.01 µM): 0.188
- relative viability (NCI-H2405; first compound 0.03162 µM): 0.224
- relative viability (NCI-H2405; first compound 0.1 µM): 0.201
- relative viability (NCI-H2405; first compound 0.3162 µM): 0.238
- relative viability (NCI-H2405; first compound 1 µM): 0.196
- relative viability (PC-14; first compound 0.01 µM): 0.237
- relative viability (PC-14; first compound 0.03162 µM): 0.267
- relative viability (PC-14; first compound 0.1 µM): 0.276
- relative viability (PC-14; first compound 0.3162 µM): 0.257
- relative viability (PC-14; first compound 1 µM): 0.237
- relative viability (NCI-H322M; first compound 0.01 µM): 0.231
- relative viability (NCI-H322M; first compound 0.03162 µM): 0.255
- relative viability (NCI-H322M; first compound 0.1 µM): 0.292
- relative viability (NCI-H322M; first compound 0.3162 µM): 0.252
- relative viability (NCI-H322M; first compound 1 µM): 0.224
- relative viability (LOU-NH91; first compound 0.01 µM): 0.546
- relative viability (LOU-NH91; first compound 0.03162 µM): 0.55
- relative viability (LOU-NH91; first compound 0.1 µM): 0.537
- relative viability (LOU-NH91; first compound 0.3162 µM): 0.584
- relative viability (LOU-NH91; first compound 1 µM): 0.563
- relative viability (EPLC-272H; first compound 0.01 µM): 0.445
- relative viability (EPLC-272H; first compound 0.03162 µM): 0.424
- relative viability (EPLC-272H; first compound 0.3162 µM): 0.339
- relative viability (EPLC-272H; first compound 1 µM): 0.263
- relative viability (NCI-H647; first compound 0.01 µM): 0.239
- relative viability (NCI-H647; first compound 0.03162 µM): 0.18
- relative viability (NCI-H647; first compound 0.1 µM): 0.0909
- relative viability (NCI-H647; first compound 0.3162 µM): 0.224
- relative viability (NCI-H647; first compound 1 µM): 0.211
- relative viability (UMC-11; first compound 0.01 µM): 0.452
- relative viability (UMC-11; first compound 0.03162 µM): 0.471
- relative viability (UMC-11; first compound 0.1 µM): 0.487
- relative viability (UMC-11; first compound 0.3162 µM): 0.439
- relative viability (UMC-11; first compound 1 µM): 0.527
- relative viability (SW 900; first compound 0.01 µM): 0.476
- relative viability (SW 900; first compound 0.03162 µM): 0.648
- relative viability (SW 900; first compound 0.1 µM): 0.66
- relative viability (SW 900; first compound 0.3162 µM): 0.539
- relative viability (SW 900; first compound 1 µM): 0.507
- relative viability (HCC-15; first compound 0.01 µM): 0.63
- relative viability (HCC-15; first compound 0.03162 µM): 0.675
- relative viability (HCC-15; first compound 0.1 µM): 0.697
- relative viability (HCC-15; first compound 0.3162 µM): 0.577
- relative viability (HCC-15; first compound 1 µM): 0.602
- relative viability (NCI-H2023; first compound 0.01 µM): 0.523
- relative viability (NCI-H2023; first compound 0.03162 µM): 0.677
- relative viability (NCI-H2023; first compound 0.1 µM): 0.612
- relative viability (NCI-H2023; first compound 0.3162 µM): 0.551
- relative viability (NCI-H2023; first compound 1 µM): 0.513
- relative viability (NCI-H520; first compound 0.01 µM): 0.184
- relative viability (NCI-H520; first compound 0.03162 µM): 0.201
- relative viability (NCI-H520; first compound 0.1 µM): 0.231
- relative viability (NCI-H520; first compound 0.3162 µM): 0.168
- relative viability (NCI-H520; first compound 1 µM): 0.203
- relative viability (COR-L23; first compound 0.01 µM): 0.534
- relative viability (COR-L23; first compound 0.03162 µM): 0.496
- relative viability (COR-L23; first compound 0.1 µM): 0.566
- relative viability (COR-L23; first compound 0.3162 µM): 0.446
- relative viability (COR-L23; first compound 1 µM): 0.512
- relative viability (NCI-H3122; first compound 0.01 µM): 0.667
- relative viability (NCI-H3122; first compound 0.03162 µM): 0.836
- relative viability (NCI-H3122; first compound 0.1 µM): 0.753
- relative viability (NCI-H3122; first compound 0.3162 µM): 0.764
- relative viability (NCI-H3122; first compound 1 µM): 0.751
- relative viability (NCI-H2347; first compound 0.01 µM): 0.316
- relative viability (NCI-H2347; first compound 0.03162 µM): 0.284
- relative viability (NCI-H2347; first compound 0.1 µM): 0.265
- relative viability (NCI-H2347; first compound 0.3162 µM): 0.315
- relative viability (NCI-H2347; first compound 1 µM): 0.283
- relative viability (NCI-H1650; first compound 0.01 µM): 0.34
- relative viability (NCI-H1650; first compound 0.03162 µM): 0.33
- relative viability (NCI-H1650; first compound 0.1 µM): 0.315
- relative viability (NCI-H1650; first compound 0.3162 µM): 0.287
- relative viability (NCI-H1650; first compound 1 µM): 0.276
- relative viability (NCI-H2170; first compound 0.01 µM): 0.574
- relative viability (NCI-H2170; first compound 0.03162 µM): 0.569
- relative viability (NCI-H2170; first compound 0.1 µM): 0.728
- relative viability (NCI-H2170; first compound 0.3162 µM): 0.557
- relative viability (NCI-H2170; first compound 1 µM): 0.621
